Activity calls are given as the source filed them.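 Rule for the calls: active = compounds whose half-maximal activation potency EC50 is 10 µM or stronger; inactive = the rest.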
target: Melanocortin receptor 4 (Homo sapiens) (UniProt P32245); experiment: MC4R beta-arrestin agonist potency, late-stage follow-up, cell-based, luminescence, agonists (AID 651555); details: U2OS MC4R beta-arrestin recruitment, beta-gal luminescence
Sequence (P32245 whole entry, looked up): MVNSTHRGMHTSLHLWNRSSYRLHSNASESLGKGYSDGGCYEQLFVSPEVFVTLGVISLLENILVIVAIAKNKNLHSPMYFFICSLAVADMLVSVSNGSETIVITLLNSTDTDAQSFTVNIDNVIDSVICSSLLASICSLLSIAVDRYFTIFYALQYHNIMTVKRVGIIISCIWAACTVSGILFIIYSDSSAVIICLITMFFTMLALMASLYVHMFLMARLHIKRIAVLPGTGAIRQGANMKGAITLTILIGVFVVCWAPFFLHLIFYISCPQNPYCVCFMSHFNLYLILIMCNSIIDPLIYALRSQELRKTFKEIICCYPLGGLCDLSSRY

SMILES	EC50
COc1ccc(N(C(C)=O)C(C(=O)NC2CCCC2)c2cccs2)cc1OC (stereo not drawn)	> 50 µM (inactive)
CC(=O)N(C)c1cc(-c2ccc(N(C)C)cc2)cn2c(-c3ccc(F)c(Cl)c3)cnc12	> 50 µM (inactive)
CNC(=O)c1cc(Oc2ccc(NCC(=O)Nc3ccc(Cl)c(C(F)(F)F)c3)cc2)ccn1	> 50 µM (inactive)
CC(=O)Nc1cc(-c2ccc(N(C)C)cc2)cn2c(-c3ccc(F)cc3)cnc12	> 50 µM (inactive)
O=C1c2cccc3cccc(c23)C(=O)N1CC1CCN(CC(O)COc2ccc3ccccc3c2)CC1 (stereo not drawn)	inactive
CNC(=O)c1cc(Oc2ccc(NC(=O)Nc3ccc(Cl)c(C(F)(F)F)c3)cc2)ccn1	> 50 µM (inactive)
CCC1CCCCN1S(=O)(=O)c1ccc(NC(=O)c2ccccc2)cc1 (stereo not drawn)	inactive
O=c1[nH]c2ccccc2n1C1CCN(CC(O)COc2ccc3ccccc3c2)CC1 (stereo not drawn)	> 50 µM (inactive)
CC(=O)Nc1cc(-c2ccc(N(C)C)cc2)cn2c(-c3ccc(F)c(Cl)c3)cnc12	> 50 µM (inactive)
C#CC(=O)N(c1ccc(OC)c(OC)c1)C(C(=O)NC1CCCC1)c1cccs1 (stereo not drawn)	> 50 µM (inactive)
CC(=O)c1ccc(Nc2nc3ccc(C(=O)N(CCC(C)C)CCC(C)C)cc3n2CCCN2CCCCC2)cc1	> 50 µM (inactive)
CCC1CCCCN1S(=O)(=O)c1ccc(NC(=O)c2cccc(S(C)(=O)=O)c2)cc1 (stereo not drawn)	> 50 µM (inactive)
OC(COc1ccc2ccccc2c1)CN1CCC(Nc2nc3ccccc3o2)CC1 (stereo not drawn)	> 50 µM (inactive)
O=C1c2cccc3cccc(c23)C(=O)N1CC1CCN(CC(O)COc2ccccc2)CC1 (stereo not drawn)	> 50 µM (inactive)
CC1CCCCN1S(=O)(=O)c1ccc(NC(=O)c2nc(S(C)(=O)=O)ncc2Cl)cc1 (stereo not drawn)	> 50 µM (inactive)
CCC1CCCCN1S(=O)(=O)c1ccc(NC(=O)c2ccnc(SC)n2)cc1 (stereo not drawn)	> 50 µM (inactive)
CNC(=O)c1cc(Oc2ccc(NC(=O)CNc3ccc(Cl)c(C(F)(F)F)c3)cc2)ccn1	> 50 µM (inactive)
Cc1ccccc1CN1Cc2cnnn2-c2ccccc2C1C#N (stereo not drawn)	> 50 µM (inactive)
COc1ccccc1C1(CCNC(C)c2cccs2)CCOC(C(C)C)C1 (stereo not drawn)	> 50 µM (inactive)
CCOC(=O)C1(c2ccccc2)CCN(CC(O)COc2ccc3ccccc3c2)CC1 (stereo not drawn)	> 50 µM (inactive)
CC(=O)Nc1cc(-c2ccc(N(C)C)cc2)cn2c(-c3ccc(F)c(F)c3)cnc12	> 50 µM (inactive)
Cc1ccccc1OCC(O)CN1CCC(CN2C(=O)c3cccc4cccc(c34)C2=O)CC1 (stereo not drawn)	> 50 µM (inactive)
CCC1CCCCN1S(=O)(=O)c1ccc(NC(=O)c2nc(S(C)(=O)=O)ncc2Cl)cc1 (stereo not drawn)	> 50 µM (inactive)

— PubChem BioAssay AID651555 (The Scripps Research Institute Molecular Screening Center, 2012)
